According to ChEMBL document CHEMBL3991601, “The target landscape of clinical kinase drugs” (Science, 2017):
Structures can show the parent of a compound that is named as a salt. The source made the active and inactive calls.

Experiments:
[1] = molecular target: Serine/threonine-protein kinase PLK1 (Homo sapiens, UniProt P53350)
[2] = molecular target: Phosphatidylethanolamine-binding protein 1 (Homo sapiens, UniProt P30086)
[3] = molecular target: Rho-associated protein kinase 1 (Homo sapiens, UniProt Q13464)
[4] = molecular target: Dual specificity protein kinase CLK3 (Homo sapiens, UniProt P49761); type: subcellular, K-562, COLO 205, SK-N-BE(2) and MV-4-11, Cell lysate; conditions: read-out: Kd apparent
[5] = molecular target: T1, Cysteine--tRNA ligase, cytoplasmic (Homo sapiens, UniProt P49589)
T1 sequence (P49589 whole entry): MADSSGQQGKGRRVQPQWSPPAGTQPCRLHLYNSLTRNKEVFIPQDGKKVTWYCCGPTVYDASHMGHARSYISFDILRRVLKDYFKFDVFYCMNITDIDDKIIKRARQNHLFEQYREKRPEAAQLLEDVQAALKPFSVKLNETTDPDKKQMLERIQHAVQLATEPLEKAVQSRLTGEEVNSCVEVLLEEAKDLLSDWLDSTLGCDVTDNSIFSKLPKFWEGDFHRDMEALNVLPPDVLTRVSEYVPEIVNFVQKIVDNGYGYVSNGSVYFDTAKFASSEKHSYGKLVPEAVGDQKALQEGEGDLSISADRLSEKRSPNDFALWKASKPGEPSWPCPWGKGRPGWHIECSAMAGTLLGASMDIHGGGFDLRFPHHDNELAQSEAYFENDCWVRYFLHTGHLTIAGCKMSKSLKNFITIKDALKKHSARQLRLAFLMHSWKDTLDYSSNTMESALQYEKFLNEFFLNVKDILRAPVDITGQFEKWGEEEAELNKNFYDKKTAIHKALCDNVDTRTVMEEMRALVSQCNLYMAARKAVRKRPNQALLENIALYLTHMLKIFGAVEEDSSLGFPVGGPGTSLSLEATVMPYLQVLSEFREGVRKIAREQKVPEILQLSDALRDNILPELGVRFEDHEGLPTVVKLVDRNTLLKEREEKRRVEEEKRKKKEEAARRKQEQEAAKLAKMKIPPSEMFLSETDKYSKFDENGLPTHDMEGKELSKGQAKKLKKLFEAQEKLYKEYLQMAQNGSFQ

[6] = molecular target: Serine/threonine-protein kinase Nek7 (Homo sapiens, UniProt Q8TDX7)
Sequence of Serine/threonine-protein kinase Nek7 (Q8TDX7 whole entry): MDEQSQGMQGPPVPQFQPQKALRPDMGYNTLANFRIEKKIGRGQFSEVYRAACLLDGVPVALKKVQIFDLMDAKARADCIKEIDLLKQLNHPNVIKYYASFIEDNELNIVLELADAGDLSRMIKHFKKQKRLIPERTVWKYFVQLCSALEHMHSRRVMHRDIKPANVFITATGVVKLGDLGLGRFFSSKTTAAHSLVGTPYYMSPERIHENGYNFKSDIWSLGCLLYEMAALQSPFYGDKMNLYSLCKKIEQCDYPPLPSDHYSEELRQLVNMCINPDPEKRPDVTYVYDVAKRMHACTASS

[7] = molecular target: Serine/threonine-protein kinase ATR (Homo sapiens, UniProt Q13535)
Sequence of Serine/threonine-protein kinase ATR (Q13535 whole entry): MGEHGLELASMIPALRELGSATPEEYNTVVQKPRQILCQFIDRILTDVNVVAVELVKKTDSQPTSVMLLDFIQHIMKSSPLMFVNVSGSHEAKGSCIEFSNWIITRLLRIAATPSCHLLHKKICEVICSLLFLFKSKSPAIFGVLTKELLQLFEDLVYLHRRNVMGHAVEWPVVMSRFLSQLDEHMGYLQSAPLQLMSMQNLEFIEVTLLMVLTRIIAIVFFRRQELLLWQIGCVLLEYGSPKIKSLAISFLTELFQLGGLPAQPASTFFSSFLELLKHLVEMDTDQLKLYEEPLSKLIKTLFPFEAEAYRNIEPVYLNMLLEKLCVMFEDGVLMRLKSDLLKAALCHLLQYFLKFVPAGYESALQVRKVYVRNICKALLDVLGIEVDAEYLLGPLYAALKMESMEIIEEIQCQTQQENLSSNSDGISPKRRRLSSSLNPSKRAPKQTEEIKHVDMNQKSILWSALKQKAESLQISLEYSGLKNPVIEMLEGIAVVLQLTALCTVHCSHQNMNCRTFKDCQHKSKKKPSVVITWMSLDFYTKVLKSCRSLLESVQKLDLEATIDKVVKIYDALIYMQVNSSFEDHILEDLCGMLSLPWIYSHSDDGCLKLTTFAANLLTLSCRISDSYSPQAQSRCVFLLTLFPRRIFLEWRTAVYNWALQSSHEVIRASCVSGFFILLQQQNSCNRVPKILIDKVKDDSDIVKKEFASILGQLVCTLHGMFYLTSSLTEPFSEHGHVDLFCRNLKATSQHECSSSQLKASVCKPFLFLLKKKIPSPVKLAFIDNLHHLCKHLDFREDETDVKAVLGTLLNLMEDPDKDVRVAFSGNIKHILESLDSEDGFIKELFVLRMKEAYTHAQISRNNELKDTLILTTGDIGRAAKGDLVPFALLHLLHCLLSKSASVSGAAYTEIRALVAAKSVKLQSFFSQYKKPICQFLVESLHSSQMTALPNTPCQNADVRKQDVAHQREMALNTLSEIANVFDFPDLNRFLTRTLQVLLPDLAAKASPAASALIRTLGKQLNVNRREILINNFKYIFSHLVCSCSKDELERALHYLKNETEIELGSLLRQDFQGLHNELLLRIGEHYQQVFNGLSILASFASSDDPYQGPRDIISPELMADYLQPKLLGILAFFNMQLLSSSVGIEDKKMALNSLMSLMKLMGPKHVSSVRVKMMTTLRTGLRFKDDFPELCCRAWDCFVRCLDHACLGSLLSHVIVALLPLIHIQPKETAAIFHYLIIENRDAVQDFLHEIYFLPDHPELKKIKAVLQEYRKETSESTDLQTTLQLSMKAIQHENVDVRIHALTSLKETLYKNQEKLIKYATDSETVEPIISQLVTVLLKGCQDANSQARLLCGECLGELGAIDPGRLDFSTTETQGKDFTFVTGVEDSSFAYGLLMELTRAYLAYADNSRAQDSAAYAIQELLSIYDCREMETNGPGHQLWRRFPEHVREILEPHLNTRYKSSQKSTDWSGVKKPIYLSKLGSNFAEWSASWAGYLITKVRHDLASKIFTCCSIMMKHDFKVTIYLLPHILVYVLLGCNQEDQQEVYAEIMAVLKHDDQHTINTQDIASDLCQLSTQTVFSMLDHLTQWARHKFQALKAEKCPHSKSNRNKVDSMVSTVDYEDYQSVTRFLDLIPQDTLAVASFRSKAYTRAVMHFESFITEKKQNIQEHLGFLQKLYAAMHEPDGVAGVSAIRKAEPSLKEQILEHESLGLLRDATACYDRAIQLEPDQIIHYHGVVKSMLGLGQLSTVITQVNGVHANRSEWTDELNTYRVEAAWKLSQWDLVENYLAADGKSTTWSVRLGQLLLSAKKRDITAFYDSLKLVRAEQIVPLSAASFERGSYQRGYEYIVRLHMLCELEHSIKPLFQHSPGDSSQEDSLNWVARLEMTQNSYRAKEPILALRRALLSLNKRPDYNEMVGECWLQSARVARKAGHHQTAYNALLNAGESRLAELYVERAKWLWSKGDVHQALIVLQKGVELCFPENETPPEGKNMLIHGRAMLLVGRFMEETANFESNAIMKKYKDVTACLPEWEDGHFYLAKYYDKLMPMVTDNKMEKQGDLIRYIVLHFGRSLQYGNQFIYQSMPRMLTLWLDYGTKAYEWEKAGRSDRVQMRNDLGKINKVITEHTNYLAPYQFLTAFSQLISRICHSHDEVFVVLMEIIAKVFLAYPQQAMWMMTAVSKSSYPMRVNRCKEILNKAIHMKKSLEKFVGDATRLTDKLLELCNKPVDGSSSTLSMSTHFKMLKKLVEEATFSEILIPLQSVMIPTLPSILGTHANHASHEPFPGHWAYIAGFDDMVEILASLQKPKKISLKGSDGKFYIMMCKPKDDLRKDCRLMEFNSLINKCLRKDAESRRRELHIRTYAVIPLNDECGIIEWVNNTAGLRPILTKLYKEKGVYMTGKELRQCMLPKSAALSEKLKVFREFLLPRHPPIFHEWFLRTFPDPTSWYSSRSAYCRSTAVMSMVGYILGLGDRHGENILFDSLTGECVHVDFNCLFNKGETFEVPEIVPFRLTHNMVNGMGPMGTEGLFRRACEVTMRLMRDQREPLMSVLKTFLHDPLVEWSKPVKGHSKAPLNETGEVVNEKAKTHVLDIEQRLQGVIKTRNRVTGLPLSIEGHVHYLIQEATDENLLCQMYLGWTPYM

[8] = molecular target: Serine/threonine-protein kinase B-raf (Homo sapiens, UniProt P15056)
UMP-CMP kinase = molecular target: T2, UMP-CMP kinase (Homo sapiens, UniProt P30085)
T2 sequence (P30085 whole entry): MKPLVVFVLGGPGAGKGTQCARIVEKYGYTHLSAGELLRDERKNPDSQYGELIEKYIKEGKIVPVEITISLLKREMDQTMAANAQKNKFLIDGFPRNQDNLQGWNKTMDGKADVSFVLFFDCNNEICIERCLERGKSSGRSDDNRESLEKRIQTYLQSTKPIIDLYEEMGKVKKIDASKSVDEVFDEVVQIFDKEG

[9] = molecular target: Dual specificity protein kinase CLK4 (Homo sapiens, UniProt Q9HAZ1)
[10] = molecular target: Uncharacterized aarF domain-containing protein kinase 5 (Homo sapiens, UniProt Q3MIX3)
[11] = molecular target: Dual specificity testis-specific protein kinase 2 (Homo sapiens, UniProt Q96S53)
Sequence of Dual specificity testis-specific protein kinase 2 (Q96S53 whole entry): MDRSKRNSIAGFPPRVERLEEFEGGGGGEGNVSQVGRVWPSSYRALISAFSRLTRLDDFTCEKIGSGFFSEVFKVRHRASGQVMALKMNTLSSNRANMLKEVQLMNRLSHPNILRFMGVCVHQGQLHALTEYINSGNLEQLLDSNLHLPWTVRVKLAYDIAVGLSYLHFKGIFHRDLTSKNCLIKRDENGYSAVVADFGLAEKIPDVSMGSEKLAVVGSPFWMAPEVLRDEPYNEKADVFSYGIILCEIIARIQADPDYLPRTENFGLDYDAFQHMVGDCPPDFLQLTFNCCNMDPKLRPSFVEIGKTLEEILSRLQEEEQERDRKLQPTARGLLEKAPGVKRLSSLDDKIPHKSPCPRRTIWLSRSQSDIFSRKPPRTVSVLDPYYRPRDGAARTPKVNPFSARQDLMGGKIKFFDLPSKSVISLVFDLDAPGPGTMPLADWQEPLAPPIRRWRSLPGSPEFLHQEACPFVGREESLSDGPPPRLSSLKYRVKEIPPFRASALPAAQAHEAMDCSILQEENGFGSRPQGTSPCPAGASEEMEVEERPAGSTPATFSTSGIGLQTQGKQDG

[12] = molecular target: Serine/threonine-protein kinase 24 (Homo sapiens, UniProt Q9Y6E0)
Sequence of Serine/threonine-protein kinase 24 (Q9Y6E0 whole entry): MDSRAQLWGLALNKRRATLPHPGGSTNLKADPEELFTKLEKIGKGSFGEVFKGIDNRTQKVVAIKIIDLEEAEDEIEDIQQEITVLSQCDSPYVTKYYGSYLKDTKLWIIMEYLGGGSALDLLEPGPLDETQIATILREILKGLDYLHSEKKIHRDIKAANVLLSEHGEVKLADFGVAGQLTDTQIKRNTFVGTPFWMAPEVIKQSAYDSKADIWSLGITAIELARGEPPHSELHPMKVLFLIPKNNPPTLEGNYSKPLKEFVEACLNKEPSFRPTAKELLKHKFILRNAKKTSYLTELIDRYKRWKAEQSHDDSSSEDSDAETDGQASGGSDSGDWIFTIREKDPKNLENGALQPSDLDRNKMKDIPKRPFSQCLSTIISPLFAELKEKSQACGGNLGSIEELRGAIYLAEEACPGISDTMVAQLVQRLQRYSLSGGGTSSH

[13] = molecular target: Choline-phosphate cytidylyltransferase A (Homo sapiens, UniProt P49585)
Further: in the data inactive means no Kd found up to 30 µM.

Sequence of Serine/threonine-protein kinase PLK1 (P53350 whole entry): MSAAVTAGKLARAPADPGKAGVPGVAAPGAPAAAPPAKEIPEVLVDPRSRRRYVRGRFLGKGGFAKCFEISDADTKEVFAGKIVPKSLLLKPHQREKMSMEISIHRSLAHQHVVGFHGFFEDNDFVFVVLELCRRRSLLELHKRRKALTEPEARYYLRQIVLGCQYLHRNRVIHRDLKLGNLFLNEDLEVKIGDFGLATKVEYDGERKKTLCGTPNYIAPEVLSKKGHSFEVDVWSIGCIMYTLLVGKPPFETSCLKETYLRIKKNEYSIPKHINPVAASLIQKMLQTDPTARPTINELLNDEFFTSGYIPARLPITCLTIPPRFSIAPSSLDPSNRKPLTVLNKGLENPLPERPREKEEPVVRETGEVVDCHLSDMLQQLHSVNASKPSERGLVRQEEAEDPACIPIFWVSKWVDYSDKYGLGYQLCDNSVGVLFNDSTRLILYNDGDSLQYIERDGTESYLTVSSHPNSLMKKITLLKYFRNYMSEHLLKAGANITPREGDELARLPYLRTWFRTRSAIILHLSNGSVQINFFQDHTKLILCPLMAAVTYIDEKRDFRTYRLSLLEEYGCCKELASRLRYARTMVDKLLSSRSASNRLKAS
Sequence of Phosphatidylethanolamine-binding protein 1 (P30086 whole entry): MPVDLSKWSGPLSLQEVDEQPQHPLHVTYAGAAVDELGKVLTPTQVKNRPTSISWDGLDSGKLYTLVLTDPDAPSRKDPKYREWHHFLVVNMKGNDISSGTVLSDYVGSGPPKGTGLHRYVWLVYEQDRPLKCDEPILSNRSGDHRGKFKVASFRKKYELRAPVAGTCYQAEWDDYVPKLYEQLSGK

Compound	Kd [1]	Kd [2]	Kd [3]	Kd [4]	Kd [5]	Kd [6]	Kd [7]	Kd [8]	Kd (UMP-CMP kinase)	Kd [9]	Kd [10]	Kd [11]	Kd [12]	Kd [13]
Cn1cc(-c2cnc3ccc4ccc(CS(=O)(=O)NCc5ccccn5)cc4c(=O)c3c2)cn1 [MK-8033]	> 30 µM (inactive)	> 30 µM (inactive)	> 30 µM (inactive)	> 30 µM (inactive)	> 30 µM (inactive)	> 30 µM (inactive)	> 30 µM (inactive)	> 30 µM (inactive)	> 30 µM (inactive)	> 30 µM (inactive)	> 30 µM (inactive)			
Cn1cc(C2=C(c3cn(C4CCN(Cc5ccccn5)CC4)c4ccccc34)C(=O)NC2=O)c2ccccc21 [ENZASTAURIN]		> 30 µM (inactive)			> 30 µM (inactive)		> 30 µM (inactive)					> 30 µM (inactive)		
CN(C[C@@H]1COCCO1)S(=O)(=O)Nc1ccc2ccc3ncc(-c4cnn(C)c4)cc3c(=O)c2c1 [MK-2461]		> 30 µM (inactive)	> 30 µM (inactive)		> 30 µM (inactive)			> 30 µM (inactive)	> 30 µM (inactive)				> 30 µM (inactive)	
CN1C/C=C/CCOc2cccc(c2)-c2ccnc(n2)Nc2cccc(c2)C1 [ZOTIRACICLIB]		> 30 µM (inactive)	99.2 µM		> 30 µM (inactive)	> 30 µM (inactive)	> 30 µM (inactive)	> 30 µM (inactive)						
CC(=O)c1cnc2ccc(-c3cc(Cl)c(O)c(Cl)c3)nc2c1N[C@H]1CC[C@H](CN(C)C)CC1		> 30 µM (inactive)	> 30 µM (inactive)		> 30 µM (inactive)	> 30 µM (inactive)			> 30 µM (inactive)					> 30 µM (inactive)
Cc1nc2cc(-n3ncc(C(=O)c4cc5ccccc5[nH]4)c3N)ccc2[nH]1 [FGFR INHIBITOR DEBIO 1347]		> 30 µM (inactive)	> 30 µM (inactive)					> 30 µM (inactive)	> 30 µM (inactive)			> 30 µM (inactive)	> 30 µM (inactive)	
CCNC(=O)C#Cc1ccc2c(c1)NC(=O)/C2=C(\Nc1ccc(CN(C)C)cc1)c1ccccc1			> 30 µM (inactive)	> 30 µM (inactive)	> 30 µM (inactive)	> 30 µM (inactive)	> 30 µM (inactive)	> 30 µM (inactive)					> 30 µM (inactive)	
COc1cc(Nc2ncc3c(n2)-c2ccc(Cl)cc2C(c2c(F)cccc2OC)=NC3)ccc1C(=O)O [ALISERTIB]		> 30 µM (inactive)			> 30 µM (inactive)	> 30 µM (inactive)		> 30 µM (inactive)	> 30 µM (inactive)		> 30 µM (inactive)	> 30 µM (inactive)	> 30 µM (inactive)	
N#CC[C@H](C1CCCC1)n1cc(-c2ncnc3[nH]ccc23)cn1 [RUXOLITINIB]		> 30 µM (inactive)			> 30 µM (inactive)									
CCS(=O)(=O)N1CCN(c2ccc(Nc3ncc(C(N)=O)c(NC4CC4)n3)cc2)CC1 [Cerdulatinib Hydrochloride]			> 30 µM (inactive)				> 30 µM (inactive)	> 30 µM (inactive)		> 30 µM (inactive)	> 30 µM (inactive)			
Cc1nc(NC(=O)N2CCC[C@H]2C(N)=O)sc1-c1ccnc(C(C)(C)C(F)(F)F)c1 [ALPELISIB]		> 30 µM (inactive)	> 30 µM (inactive)		> 30 µM (inactive)		> 30 µM (inactive)	> 30 µM (inactive)	> 30 µM (inactive)	> 30 µM (inactive)				
Cn1ncc(Cl)c1-c1cc(C(=O)N[C@H](CN)Cc2ccc(F)c(F)c2)oc1Cl [UPROSERTIB]		> 30 µM (inactive)						> 30 µM (inactive)	> 30 µM (inactive)				> 30 µM (inactive)	
C[C@H]1CNCCCN1S(=O)(=O)c1cccc2cncc(F)c12						> 30 µM (inactive)		> 30 µM (inactive)				> 30 µM (inactive)	> 30 µM (inactive)	
C[C@@H](Oc1cc(C(=O)Nc2ccc(C(=O)N3CCN(C)CC3)cc2)nnc1N)c1c(Cl)ccc(F)c1Cl		> 30 µM (inactive)	> 30 µM (inactive)			> 30 µM (inactive)		> 30 µM (inactive)					> 30 µM (inactive)	
Cc1cccc(-c2nn3c(c2-c2ccnc4ccc(C(N)=O)cc24)CCC3)n1 [GALUNISERTIB]	> 30 µM (inactive)	> 30 µM (inactive)	> 30 µM (inactive)		> 30 µM (inactive)	> 30 µM (inactive)	> 30 µM (inactive)	> 30 µM (inactive)		> 30 µM (inactive)		> 30 µM (inactive)	> 30 µM (inactive)	
COc1cc([C@@H]2c3cc4c(cc3[C@H](O)[C@H]3COC(=O)[C@@H]23)OCO4)cc(OC)c1OC [AXL-1717]		> 30 µM (inactive)	> 30 µM (inactive)		> 30 µM (inactive)			> 30 µM (inactive)	> 30 µM (inactive)				> 30 µM (inactive)	
Cc1[nH]c(/C=C2\C(=O)Nc3ccccc32)c(C)c1CCC(=O)O [ORANTINIB]				> 30 µM (inactive)	> 30 µM (inactive)	> 30 µM (inactive)		> 30 µM (inactive)			> 30 µM (inactive)	> 30 µM (inactive)		> 30 µM (inactive)
COCc1c(-c2ccc(NC(=O)Nc3cc(C(F)(F)F)ccc3F)c(F)c2)c2c(N)ncnn2c1CN1CCOCC1	> 30 µM (inactive)	> 30 µM (inactive)	> 30 µM (inactive)		> 30 µM (inactive)		> 30 µM (inactive)			> 30 µM (inactive)			> 30 µM (inactive)	
CNC(=O)c1ccccc1Sc1ccc2c(/C=C/c3ccccn3)n[nH]c2c1 [AXITINIB]		> 30 µM (inactive)			> 30 µM (inactive)				> 30 µM (inactive)					> 30 µM (inactive)
C[C@@H](Oc1cc(-n2cnc3ccc(CN4CCN(C)CC4)cc32)sc1C(N)=O)c1ccccc1C(F)(F)F [GSK-461364]		> 30 µM (inactive)			> 30 µM (inactive)		> 30 µM (inactive)				> 30 µM (inactive)	> 30 µM (inactive)		> 30 µM (inactive)
CN1CCN(CCOc2cc(OC3CCOCC3)c3c(Nc4c(Cl)ccc5c4OCO5)ncnc3c2)CC1 [SARACATINIB]	> 30 µM (inactive)		> 30 µM (inactive)	> 30 µM (inactive)		> 30 µM (inactive)	> 30 µM (inactive)	> 30 µM (inactive)					> 30 µM (inactive)	
C=CC(=O)Nc1cc2c(Nc3ccc(F)c(Cl)c3)ncnc2cc1C#CC(C)(C)N1CCN(C)CC1 [AV-412 FREE BASE]			> 30 µM (inactive)				> 30 µM (inactive)	> 30 µM (inactive)		> 30 µM (inactive)	> 30 µM (inactive)	> 30 µM (inactive)		
NC(=O)Nc1cc(-c2cccc(F)c2)sc1C(=O)N[C@H]1CCCNC1 [AZD-7762]		> 30 µM (inactive)		> 30 µM (inactive)		> 30 µM (inactive)		> 30 µM (inactive)	> 30 µM (inactive)	> 30 µM (inactive)	> 30 µM (inactive)	> 30 µM (inactive)		
O=C(NOCCO)c1cc(CN2OCCCC2=O)c(F)c(F)c1Nc1ccc(I)cc1F [RO-4987655]		> 30 µM (inactive)			> 30 µM (inactive)		> 30 µM (inactive)				> 30 µM (inactive)	> 30 µM (inactive)		
Cn1cc(-c2cnn3c(N)c(Br)c([C@@H]4CCCNC4)nc23)cn1 [SCH-900776]		> 30 µM (inactive)	> 30 µM (inactive)	> 30 µM (inactive)		> 30 µM (inactive)		> 30 µM (inactive)	> 30 µM (inactive)	> 30 µM (inactive)				
CCn1c(C(=O)N(C2CC2)C2CC2)cc2c3c(ncn3C)c(Nc3cc(C)n(C)n3)nc21 [BMS-911543]	> 30 µM (inactive)	> 30 µM (inactive)	> 30 µM (inactive)	> 30 µM (inactive)	> 30 µM (inactive)	> 30 µM (inactive)	> 30 µM (inactive)	> 30 µM (inactive)	> 30 µM (inactive)	> 30 µM (inactive)	> 30 µM (inactive)		> 30 µM (inactive)	
